Measurements reported in patent US10590143B2, “Herbicidally active (alkynyl-phenyl)-substituted cyclic dione compounds and derivatives thereof” (Syngenta Limited, priority 2013, dated 2020).
Like-named read-outs stand apart in the source and are kept apart here.

How the values were obtained:
Assay in all cases: Biological Example 1 glasshouse assay for herbicidal activity
Assay type in all cases: in vivo
[1] = test system: Alopecurus myosuroides (ALOMY); conditions: 312 h, 13 days after application, read-out: percentage phytotoxicity ALOMY
Summary of the method: (§1)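 Weeds were sprayed pre-emergence (1 day after sowing) or post-emergence (8 days) with herbicide in acetone/water 50:50 plus 0.5% Tween 20. Plants grew in glasshouse at 24/16 °C, 14 h light, 65% humidity. Phytotoxicity was scored visually at 13 days (0–100%), usually one plant per species per rate.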

[2] = test system: Zea mays (ZEAMX, corn, maize, e.g. volunteer corn); conditions: Zea mays, 312 h, 13 days after application, read-out: percentage phytotoxicity ZEAMX
Summary of the method: as §1

[3] = test system: Setaria faberi (SETFA); conditions: 312 h, 13 days after application, read-out: percentage phytotoxicity SETFA
Summary of the method: as §1

[4] = test system: Abutilon theophrasti (ABUTH); conditions: 312 h, 13 days after application, read-out: percentage phytotoxicity ABUTH
Summary of the method: as §1

[5] = test system: Echinochloa crus-galli (ECHCG); conditions: Echinochloa crus-galli, 312 h, 13 days after application, read-out: percentage phytotoxicity ECHCG
Summary of the method: as §1

[6] = test system: Amaranthus retroflexus (AMARE); conditions: Amaranthus retroflexus, 312 h, 13 days after application, read-out: percentage phytotoxicity AMARE
Summary of the method: as §1

Structure (SMILES) | pest or weed control at 8 g/ha ([1]; post-emergence) | pest or weed control at 30 g/ha ([1]; post-emergence) | pest or weed control at 250 g/ha ([1]; post-emergence) | pest or weed control at 30 g/ha ([1]; pre-emergence) | pest or weed control at 250 g/ha ([1]; pre-emergence) | pest or weed control at 250 g/ha ([2]; post-emergence, post-emergence) | pest or weed control at 30 g/ha ([2]; pre-emergence, pre-emergence) | pest or weed control at 250 g/ha ([2]; pre-emergence, pre-emergence) | pest or weed control at 250 g/ha ([3]; post-emergence, post-emergence) | pest or weed control at 30 g/ha ([3]; pre-emergence, pre-emergence) | pest or weed control at 250 g/ha ([3]; pre-emergence, pre-emergence) | pest or weed control at 250 g/ha ([4]; post-emergence, post-emergence) | pest or weed control at 30 g/ha ([4]; pre-emergence, pre-emergence) | pest or weed control at 250 g/ha ([4]; pre-emergence, pre-emergence) | pest or weed control at 250 g/ha ([5]; post-emergence, post-emergence) | pest or weed control at 30 g/ha ([5]; pre-emergence, pre-emergence) | pest or weed control at 250 g/ha ([5]; pre-emergence, pre-emergence) | pest or weed control at 250 g/ha ([6]; post-emergence, post-emergence) | pest or weed control at 30 g/ha ([6]; pre-emergence, pre-emergence) | pest or weed control at 250 g/ha ([6]; pre-emergence, pre-emergence) | other results
CC#Cc1cc(F)c(C2=C(OC(=O)SCC)C3CCC(C3)C2=O)c(OC)c1 (stereo not drawn) [Compound P4] | 80% | 90% | 90% | 80% | 100% | 100% | 90% | 100% | 100% | 60% | 90% | 80% | 0% | 40% | 100% | 100% | 100% | 20% | 30% | 60% | pest or weed control at 8 g/ha ([2]; post-emergence, post-emergence): 100%; pest or weed control at 30 g/ha ([2]; post-emergence, post-emergence): 100%; pest or weed control at 8 g/ha ([3]; post-emergence, post-emergence): 70%; pest or weed control at 30 g/ha ([3]; post-emergence, post-emergence): 80%; pest or weed control at 8 g/ha ([4]; post-emergence, post-emergence): 10%; pest or weed control at 30 g/ha ([4]; post-emergence, post-emergence): 20%; pest or weed control at 8 g/ha ([5]; post-emergence, post-emergence): 90%; pest or weed control at 30 g/ha ([5]; post-emergence, post-emergence): 100%; pest or weed control at 8 g/ha ([6]; post-emergence, post-emergence): 20%; pest or weed control at 30 g/ha ([6]; post-emergence, post-emergence): 30%
CC#Cc1cc(F)c(C2=C(OC(=O)OC(C)C)C3CCC(C3)C2=O)c(OC)c1 (stereo not drawn) [Compound P3] | 60% | 80% | 100% | 70% | 100% | 100% | 80% | 100% | 100% | 20% | 80% | 80% | 0% | 10% | 100% | 80% | 100% | 40% | 30% | 60% | pest or weed control at 8 g/ha ([2]; post-emergence, post-emergence): 90%; pest or weed control at 30 g/ha ([2]; post-emergence, post-emergence): 100%; pest or weed control at 8 g/ha ([3]; post-emergence, post-emergence): 60%; pest or weed control at 30 g/ha ([3]; post-emergence, post-emergence): 80%; pest or weed control at 8 g/ha ([4]; post-emergence, post-emergence): 10%; pest or weed control at 30 g/ha ([4]; post-emergence, post-emergence): 10%; pest or weed control at 8 g/ha ([5]; post-emergence, post-emergence): 80%; pest or weed control at 30 g/ha ([5]; post-emergence, post-emergence): 100%; pest or weed control at 8 g/ha ([6]; post-emergence, post-emergence): 0%; pest or weed control at 30 g/ha ([6]; post-emergence, post-emergence): 0%
COc1cc(C#CCl)cc(F)c1C1C(=O)C2CCC(C2)C1=O (stereo not drawn) [Compound A8, 3-[4-(2-chloroethynyl)-2-fluoro-6-methoxy-phenyl]bicyclo[3.2.1]octane-2,4-dione] | – | – | 70% | 40% | 60% | 50% | 60% | 70% | 70% | 60% | 60% | 0% | 10% | 0% | 70% | 30% | 60% | 10% | 50% | 40% | –
